The experiment has as its system C57BL/6 J mice. Briefly: Open-field test (locomotion and thigmotaxis). The class given is in vivo, mouse. To be noted: for Total distance travelled in 50 mins (Figure 6a) / Open-field test, locomotion over time (sheet 6b) / Open-field test, thigmotaxis over time (sheet 6d) / Open-field test, thigmotaxis, whole session (sheet 6c): individual mice. The arrangement: Total distance travelled in 50 mins (Figure 6a) / Open-field test, locomotion over time (sheet 6b) / Open-field test, thigmotaxis, whole session (sheet 6c): unit not given here. The procedure: Adult […] C57BL/6 J mice (3-6 months old) were provided by Charles River. Both females and males (15 females and 9 males) were used in this study. Sex was evenly distributed across experimental groups. Sex was not considered in the study design or analysis, as no reports indicate differential expression levels of GPR139 between male and female mice. They were housed with ad libitum food and water, in a temperature and humidity-controlled environment under a standard 12 h light/dark cycle. The experiments were performed in agreement with the European Council Directive (86/609/EEC) and approved by the local Animal Ethics Committee at Karolinska Institute (3218-2022). All efforts were made to minimize suffering and the number of animals used. Mice were treated with either 10% DMSO + 10% solutol HS-15 + 80% saline (vehicle, n = 8), compound 1.5 (n = 8, 30 mg/kg i.p.), or JNJ-63533054 (n = 8, 30 mg/kg i.p.), both of which were dissolved in 10% DMSO + 10% solutol HS-15 + 80% saline. Mice were placed in an open field arena 10 min after the injection and recorded for 50 min. Total distance travelled and the time spent in the periphery arena were measured using an automated video tracking system (EthoVision XT 11.5; Noldus). One-way ANOVA followed by Dunnett’s multiple comparisons test and Two-way ANOVA followed by Tukey’s multiple comparisons test were used. Brain and blood samples were taken immediately after the locomotion test. The brain samples were quickly frozen, and blood was drawn from the cervical vein upon decapitation into EP tubes. The samples were immediately centrifuged for 10 min at 3000 × g at 4 °C, and the plasma was transferred into clean polypropylene tubes. All samples were stored at −80 °C before analysis.

Several values for one entry are separate records, joined by “and”; a condition that tells them apart may be missing. Equal entries are not always repeated.

Take `Cc1nocc1-c1nc(CC(=O)NC(C)c2ccccc2)no1` (stereo not shown) [Compound 1.5, CC(C1=CC=CC=C1)NC(CC2=NOC(C3=CON=C3C)=N2)=O]: the “Open-field test, thigmotaxis, whole session (sheet 6c)” value was 98.132 and 97.2307 and 99.696 and 69.7907 and 91.5387 and 88.492 and 96.8507 and 82.616. In addition, the “Total distance travelled in 50 mins (Figure 6a)” value (30 mg/kg i.p.) was 3619.7 and 1516.14 and 932.636 and 2008.89 and 11482.8 and 3961.35 and 3158.61 and 1417.56. In addition, the “Open-field test, locomotion over time (sheet 6b)” value (5 mins) is 1534.71 and 1388.77 and 1295.98 and 638.887 and 1035.03 and 624.833 and 367.922 and 520.924. Moreover, the “Open-field test, thigmotaxis over time (sheet 6d)” value (5 mins, in % (unit assumed)) was 58.4267 and 77.1733 and 70.76 and 76.5333 and 44.5867 and 92.2133 and 78.64 and 98.2267. Besides, where the note is “10 mins”, the “Open-field test, locomotion over time (sheet 6b)” value was 944.829 and 1045.75 and 698.474 and 211.083 and 1038.45 and 297.32 and 169.554 and 251.751. Moreover, where the note is “10 mins, in % (unit assumed)”, the “Open-field test, thigmotaxis over time (sheet 6d)” value was 57.6133 and 89.2933 and 80.9867 and 94.6933 and 45.7733 and 98.64 and 97.4267 and 99.88. Moreover, where the note is “15 mins”, the “Open-field test, locomotion over time (sheet 6b)” value was 724.917 and 289.775 and 194.585 and 64.0034 and 579.982 and 38.8587 and 84.0131 and 202.975; the “Open-field test, thigmotaxis over time (sheet 6d)” value is 79.1867 and 87.4267 and 100 (4×) and 67.5067 and 98.8533. For the same compound, under “20 mins”, the “Open-field test, locomotion over time (sheet 6b)” value is 43.478 and 341.627 and 152.166 and 3.91 and 301.879 and 49.2379 and 23.1583 and 69.7204; the “Open-field test, thigmotaxis over time (sheet 6d)” value was 100 (5×) and 93.36 and 86.0667 and 98.92. Where the note is “25 mins”, the “Open-field test, locomotion over time (sheet 6b)” value is 1347.85 and 148.793 and 124.524 and 4.2615 and 37.5095 and 24.1112 and 17.1945 and 57.9976; the “Open-field test, thigmotaxis over time (sheet 6d)” value is 75.1067 and 91.4267 and 100 (6×). Moreover, under “30 mins”, the “Open-field test, locomotion over time (sheet 6b)” value was 1735.43 and 147.426 and 152.999 and 41.6297 and 15.7939 and 39.7283 and 43.7378 and 9.443; the “Open-field test, thigmotaxis over time (sheet 6d)” value was 59.8267 and 99.36 and 97.2933 and 98.9733 and 100 (3×) and 97.7867. Also, for the setting “35 mins”, the “Open-field test, locomotion over time (sheet 6b)” value was 1485.83 and 64.3909 and 126.684 and 26.842 and 6.448 and 42.921 and 11.8566 and 37.4144; the “Open-field test, thigmotaxis over time (sheet 6d)” value was 59.8533 and 100 (6×) and 99.44. In addition, the “Open-field test, locomotion over time (sheet 6b)” value (40 mins) is 1609.58 and 127.219 and 108.3 and 183.443 and 63.0073 and 201.855 and 59.5513 and 1.7683. Moreover, the “Open-field test, thigmotaxis over time (sheet 6d)” value (40 mins, in % (unit assumed)) was 53.72 and 93.1467 and 46.96 and 98.3067 and 97.52 and 91.5467 and 99.2 and 100. Further, where the note is “45 mins”, the “Open-field test, locomotion over time (sheet 6b)” value is 1163.43 and 158.947 and 183.999 and 73.8724 and 168.393 and 37.8929 and 22.5543 and 382.596; the “Open-field test, thigmotaxis over time (sheet 6d)” value is 64.4933 and 94.68 and 93.2533 and 100 (4×) and 88.1333. In addition, where the note is “50 mins”, the “Open-field test, locomotion over time (sheet 6b)” value is 892.776 and 248.648 and 120.895 and 169.632 and 373.205 and 159.384 and 133.094 and 474.296; the “Open-field test, thigmotaxis over time (sheet 6d)” value is 89.68 and 89.52 and 96.2267 and 100 (3×) and 96.5733 and 99.2533.

For `CC(NC(=O)CNC(=O)c1cccc(Cl)c1)c1ccccc1` (stereo not shown) [JNJ-63533054, reference compound], the “Open-field test, thigmotaxis, whole session (sheet 6c)” value was 97.4653 and 94.024 and 95.1893 and 98.6947 and 88.4613 and 85.0307 and 98.8533 and 92.4467. Besides, for the setting “30 mg/kg i.p., vs vehicle”, the “thigmotaxis (time in the periphery)” value was “spent more time in the periphery compared to the vehicle group” and the “total distance travelled in the open field arena” value is “results similar to those obtained for JNJ-63533054”. For the same compound, the “Total distance travelled in 50 mins (Figure 6a)” value (30 mg/kg i.p.) was 3359.39 and 1792.13 and 2582.49 and 3979.72 and 2080.85 and 9982.78 and 3772.48 and 918.903. Moreover, the “Open-field test, locomotion over time (sheet 6b)” value (5 mins) was 932.272 and 989.458 and 1696.51 and 1348.86 and 505.51 and 1391.08 and 1396.99 and 852.786. Moreover, the “Open-field test, thigmotaxis over time (sheet 6d)” value (5 mins, in % (unit assumed)) is 70.24 and 93.24 and 86.6 and 72.9333 and 95.6533 and 59.4533 and 79.16 and 62.2. The “Open-field test, locomotion over time (sheet 6b)” value (10 mins) is 809.521 and 300.737 and 1208.9 and 562.14 and 33.766 and 906.8 and 199.588 and 129.938. Where the note is “10 mins, in % (unit assumed)”, the “Open-field test, thigmotaxis over time (sheet 6d)” value was 97.5867 and 98.7467 and 63.5867 and 94.9733 and 100 and 78.9333 and 98.0533 and 99.9733. Besides, under “15 mins”, the “Open-field test, locomotion over time (sheet 6b)” value is 194.752 and 21.7885 and 924.739 and 354.313 and 27.675 and 233.464 and 23.6513 and 7.655; the “Open-field test, thigmotaxis over time (sheet 6d)” value was 98.8933 and 100 (4×) and 93.1733 and 95.84 and 98.8533. Besides, for the setting “20 mins”, the “Open-field test, locomotion over time (sheet 6b)” value was 171.669 and 49.3834 and 612.36 and 167.407 and 0 and 187.813 and 0.8234 and 102.119; the “Open-field test, thigmotaxis over time (sheet 6d)” value was 99.9467 and 100 (4×) and 97.5333 and 99.0133 and 99.7333. For the same compound, under “25 mins”, the “Open-field test, locomotion over time (sheet 6b)” value is 630.708 and 147.757 and 783.223 and 246.73 and 0.6166 and 0.4386 and 0.4195 and 141.542; the “Open-field test, thigmotaxis over time (sheet 6d)” value was 94.8 and 100 (5×) and 94.6667 and 96.8533. In addition, under “30 mins”, the “Open-field test, locomotion over time (sheet 6b)” value was 4.719 and 265.963 and 938.142 and 27.3973 and 11.6817 and 61.4941 and 0 and 205.37; the “Open-field test, thigmotaxis over time (sheet 6d)” value was 100 (5×) and 97.44 and 85.8667 and 98.56. For the setting “35 mins”, the “Open-field test, locomotion over time (sheet 6b)” value was 3.326 and 8.572 and 1042.9 and 433.751 and 7.486 and 2.001 and 0.4323 and 246.216; the “Open-field test, thigmotaxis over time (sheet 6d)” value is 100 (5×) and 84.7333 and 92.4267 and 94.5867. Where the note is “40 mins”, the “Open-field test, locomotion over time (sheet 6b)” value was 521.05 and 1.596 and 845.25 and 8.083 and 7.72 and 4.549 and 0.4103 and 0.9443; the “Open-field test, thigmotaxis over time (sheet 6d)” value was 97.24 and 100 (6×) and 95.16. Also, where the note is “45 mins”, the “Open-field test, locomotion over time (sheet 6b)” value was 294.43 and 290.485 and 1172.17 and 477.116 and 34.0014 and 4.204 and 168.331 and 0.6994; the “Open-field test, thigmotaxis over time (sheet 6d)” value was 98.6133 and 97.52 and 87.88 and 86.5333 and 99.8133 and 100 (2×) and 97.44. Besides, where the note is “50 mins”, the “Open-field test, locomotion over time (sheet 6b)” value is 417.274 and 5.107 and 758.587 and 146.686 and 290.447 and 567.543 and 1.48 and 895.221; the “Open-field test, thigmotaxis over time (sheet 6d)” value was 94.5733 and 100 (2×) and 95.4133 and 11.7333 and 93.0667 and 88.9333 and 83.48.

(Values after paper PMC12775434, “Ultra-large virtual screening unveils potent agonists of the neuromodulatory orphan receptor GPR139” (Nature Communications, 2025).)
